Reference: patent US20240417408A1, “SMALL MOLECULE INHIBITORS OF KRAS G12C MUTANT” (MERCK SHARP & DOHME CORP., priority 2021, published 2024)

Experiments:
[1] = molecular target: T1, Recombinant KRAS G12C mutant protein (amino acids 1-169, SEQ ID NO: 1) (Homo sapiens, UniProt P01116, G12C); assay: Test Example 1: inhibitory activity on KRAS G12C nucleotide (GDP-GTP) exchange reaction in vitro; format: biochemical; details: BODIPY FL GDP-bound KRAS G12C incubated with compound at 25° C. for 1 hour, then SOS1 and GMPPNP, read-out: GNE IC50
T1 construct: His6 (N); TEV protease site (ENLYFQG; named from own knowledge) (N); made in house; host or cells: E. coli
Method: Test Example 1: Evaluation of inhibitory activity of compounds on KRAS G12C nucleotide (GDP-GTP) exchange reaction in vitro
Recombinant KRAS G12C mutant protein (amino acids 1-169, SEQ ID NO: 1) and cleaved recombinant SOS1 (amino acids 564-1049, SEQ ID NO:2) proteins were expressed in E. coli and purified by affinity chromatography.
To prepare BODIPY FL GDP-bound KRAS G12C protein, 50 μM KRAS G12C protein was incubated with 0.5 mM BODIPY FL GDP in a loading buffer (20 mM Tris-HCl (pH 7.5), 50 mM NaCl, 1 mM DTT and 2.5 mM EDTA) for 1 hour on ice. After the incubation, MgCl2 was added to a final concentration of 10 mM, followed by incubation at room temperature for 30 minutes. The mixture was allowed to pass through a NAP-5 column to remove free nucleotides and purified BODIPY FL GDP-bound KRAS G12C protein was used for compound evaluation.
For the measurement of the inhibitory activity of compounds on GDP-GTP exchange rate of recombinant KRAS G12C, BODIPY FL GDP-bound KRAS G12C protein was incubated with various concentrations of compound in a reaction buffer (20 mM Tris-HCl (pH 7.5), 100 mM NaCl, 1 mM MgCl2, 2 mM DTT, 0.1% Tween 20) at 25° C. for 1 hour. After the incubation, recombinant SOS1 and Guanosine-5′-[(β,γ)-imido]triphosphate, Tetralithium salt (GMPPNP) (Jena Bioscience GmbH) were added and incubated at room temperature for 30 minutes to proceed SOS1-dependent GDP-GTP exchange reaction on KRAS G12C. Replacement of BODIPY FL GDP by GMPPNP was measured by calculating the ratio of fluorescence intensities of BODIPY FL before and after the exchange reaction. Inhibition % was calculated by setting the fluorescence ratio from the reaction without test compound (DMSO control) and the fluorescence ratio from the reaction without SOS1 and GMPPNP as 0% and 100% inhibition, respectively. IC50 values were calculated from dose titration curve using curve fitting by XLfit software (IDBS).

[2] = molecular target: T2, interaction between KRAS G12C and cRAF-RBD (Homo sapiens, UniProt P01116, G12C); assay: Test Example 2: inhibitory activity on interaction between KRAS G12C and cRAF (Alpha technology); format: binding; details: GMPPNP-bound KRAS G12C incubated with compound at 25° C. for 1 hour, then cRAF-RBD
T2 construct: TEV protease site (ENLYFQG); made in house; host or cells: E. coli
Method: Test Example 2: Evaluation of Inhibitory Activity of Compounds on Interaction Between KRAS G12C and cRAF (In Vitro)
Interaction between recombinant KRAS G12C mutant protein (SEQ ID NO: 1) and cRAF RAS-binding domain (cRAF-RBD, amino acids 50-132, Jena Biosciences GmbH) was measured using Alpha technology (PerkinElmer Inc.).
Recombinant KRAS G12C protein with an N-terminal His-tag was expressed in E. coli and purified by affinity chromatography. To prepare GTP-bound form and GDP-bound form of KRAS G12C protein, 50 μM KRAS G12C protein was incubated with 1 mM GMPPNP (Jena Bioscience GmbH) and 1 mM GDP, respectively, in a loading buffer (20 mM Tris-HCl (pH 7.5), 50 mM NaCl, 1 mM DTT and 2.5 mM EDTA) for 1 hour on ice. After the incubation, MgCl2 was added to a final concentration of 10 mM, followed by incubation at room temperature for 30 minutes. The mixture was allowed to pass through a NAP-5 column to remove free nucleotides and purified, and the resultant nucleotide-bound KRAS G12C protein was used for compound evaluation.
For the measurement of the inhibitory activity of compounds on interaction between KRAS G12C and cRAF-RBD, GMPPNP-bound KRAS G12C protein was incubated with various concentrations of compound in a reaction buffer (20 mM Tris-HCl (pH 7.5), 100 mM NaCl, 1 mM MgCl2, 1 mM TCEP, 0.1% Tween 20) at 25° C. for 1 hour. After the incubation, recombinant cRAF-RBD and Alpha detection reagents were added and incubated at room temperature for 1.5 hours for binding. Interaction of KRAS G12C and cRAF-RBD was monitored by measuring Alpha signal. Inhibition % was calculated using the signal from the reaction without test compound (DMSO control) as 0% inhibition and the signal from the reaction using GDP-bound KRAS G12C in place of GMPPNP-bound KRAS G12C as 100% inhibition. IC50 values were calculated from dose titration curve using curve fitting by XLfit software (IDBS).

[3] = test system: MIA PaCa-2 cells; assay: Test Example 3: growth inhibition activity on KRAS-G12C mutant cell line (MIA PaCa-2); format: cell-based; details: Homo sapiens, 72 h, MIA PaCa-2, 3-day culture, CellTiter-Glo 3D, read-out: CTX MiaPaCa IC50
Method: Test Example 3: Assay of Growth Inhibition Activity on KRAS-G12C Mutant Cell Line (MIA PaCa-2) (In Vitro)
MIA PaCa-2 cells (provided by Sumitomo Dainippon Pharma Co., Ltd.), which are a KRAS-G12C mutant human pancreas cancer cell line, were suspended in a 10% fetal bovine serum-containing RPMI1640 medium (manufactured by Fujifilm Wako Pure Chemical Corporation.). The cell suspension was seeded into each well of a 384-well U bottom microplate and cultured in an incubator containing 5% CO2 gas at 37° C. for 1 day. The compounds obtained in the Examples section were used as test compounds and were dissolved in DMSO, respectively, and each test compound was diluted with DMSO to give a concentration 500 times the final concentration. The resultant solution of the test compound in DMSO was diluted with the medium used for suspending cells and added to each well of the cell-culture plate to give a DMSO final concentration of 0.2%, followed by culture in an incubator containing 5% CO2 gas at 37° C. for another 3 days. The cell count after 3-day culture in the presence of the test compound was measured using CellTiter-Glo 3D Reagent (manufactured by Promega Corporation). To all cells were added with CellTiter-Glo 3D Reagent and mixed for 10 minutes. 30 minutes after mixing, luminescence was measured by a plate reader. The growth inhibition rate was calculated from the following equation, and the concentration of the test compound at which 50% inhibition was achieved (IC50 (nM)) was determined.
[formula] • T: the emission intensity in a well into which a test compound was added. • C: the emission intensity in a well into which a test compound was not added.

T1 sequence (P01116 with tags, fused parts or gaps isoform P01116-2 G12C): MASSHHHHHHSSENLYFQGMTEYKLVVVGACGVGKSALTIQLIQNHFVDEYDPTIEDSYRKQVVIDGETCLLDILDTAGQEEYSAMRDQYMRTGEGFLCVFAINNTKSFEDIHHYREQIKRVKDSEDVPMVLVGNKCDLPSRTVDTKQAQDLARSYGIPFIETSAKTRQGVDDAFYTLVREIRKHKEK
T2 sequence (P01116 with tags, fused parts or gaps isoform P01116-2 G12C): as above

Row | Structure (SMILES) | IC50 [1] | IC50 [2] | IC50 [3]
1 | CN1CCC[C@H]1COc1nc2c(c(N3CCN(C(=O)/C=C/CNC4CC5CCC(C4)O5)[C@@H](CC#N)C3)n1)COC(c1cccc3ccccc13)C2 (stereo partly drawn) [Example 3, 2-((2S)-1-((E)-4-((8-oxa-bicyclo[3.2.1]octan-3-yl)-amino)but-2-enoyl)-4-(2-(((S)-1-methylpyrrolidin-2-yl)methoxy)-7-(naphthalen-1-yl)-7,8-dihydro-5H-pyrano[4,3-d]pyrimidin-4-yl)piperazin-2-yl)acetonitrile] | 5.22 nM | 11500 nM | 100 nM
2 | C#Cc1cccc2cccc(C3Cc4nc(OCC5(CN6CCOCC6)CC5)nc(N5CCN(C(=O)/C=C/CN6CCC(OC)CC6)[C@@H](CC#N)C5)c4CO3)c12 (stereo partly drawn) [Example 6, 2-((2S)-4-(7-(8-ethynylnaph-thalen-1-yl)-2-((1-(morpho-linomethyl)cyclopropyl)-methoxy)-7,8-dihydro-5H-pyrano[4,3-d]pyrimidin-4-yl)-1-((E)-4-(4-methoxy-piperidin-1-yl)but-2-enoyl)-piperazin-2-yl)acetonitrile] | 15.4 nM | 1260 nM | 268 nM
3 | C#Cc1cccc2cc(O)cc([C@@H]3Cc4nc(OC[C@@H]5CCCN5C)nc(N5C[C@H](CC#N)N(C(=O)/C=C/CN6CCC(OC)CC6)C[C@@H]5C)c4CO3)c12 [Example 15, 2-((2S,5S)-4-((S)-7-(8-ethynyl-3-hydroxynaph-thalen-1-yl)-2-(((S)-1-meth-ylpyrrolidin-2-yl)methoxy)-7,8-dihydro-5H-pyrano[4,3-d]pyrimidin-4-yl)-1-((E)-4-(4-methoxypiperidin-1-yl)-but-2-enoyl)-5-methyl-piperazin-2-yl)acetonitrile] | 103 nM | > 6670 nM | 1920 nM
4 | C#Cc1cccc2cc(O)cc([C@@H]3Cc4nc(OCC5(COC)CC5)nc(N5CCN(C(=O)/C=C/CN6CCC(OC)CC6)[C@@H](CC#N)C5)c4CO3)c12 [Example 17, 2-((S)-4-((S)-7-(8-ethynyl-3-hydroxynaphthalen-1-yl)-2-((1-(methoxymethyl)-cyclopropyl)methoxy)-7,8-dihydro-5H-pyrano[4,3-d]-pyrimidin-4-yl)-1-((E)-4-(4-methoxypiperidin-1-yl)but-2-enoyl)piperazin-2-yl)-acetonitrile] | 255 nM | > 6670 nM | 543 nM
5 | C#Cc1cccc2cc(O)cc([C@@H]3Cc4nc(OCC5(C(=O)N(C)C)CC5)nc(N5CCN(C(=O)/C=C/CN6CCC(OC)CC6)[C@@H](CC#N)C5)c4CO3)c12 [Example 18, 1-((((S)-4-((S)-3-(cyano-methyl)-4-((E)-4-(4-meth-oxypiperidin-1-yl)but-2-enoyl)piperazin-1-yl)-7-(8-ethynyl-3-hydroxynaph-thalen-1-yl)-7,8-dihydro-5H-pyrano[4,3-d]pyrimidin-2-yl)oxy)methyl)-N,N-dimethylcyclopropane-1-carboxamide] | 58.7 nM | > 6670 nM | 4460 nM

Stronger by IC50 [1], values ahead:

Row | IC50 [1] | IC50 [2] | IC50 [3] | Structure (SMILES)
6 | 0.82 nM | 531 nM | 7.88 nM | C#Cc1cccc2cc(O)cc([C@@H]3Cc4nc(OC[C@@H]5CCCN5C)nc(N5C[C@H](CC#N)N(C(=O)/C=C/CN6CCC(OC)CC6)C[C@H]5C)c4CO3)c12 [Example 14, 2-((2S,5R)-4-((S)-7-(8-ethynyl-3-hydroxynaph-thalen-1-yl)-2-(((S)-1-meth-ylpyrrolidin-2-yl)methoxy)-7,8-dihydro-5H-pyrano[4,3-d]pyrimidin-4-yl)-1-((E)-4-(4-methoxypiperidin-1-yl)-but-2-enoyl)-5-methylpiper-azin-2-yl)acetonitrile]
7 | 0.91 nM | 51.3 nM | 6.21 nM | C#Cc1cccc2cc(O)cc([C@@H]3Cc4nc(OCC5(CN(C)C)CC5)nc(N5CCN(C(=O)/C=C/CN6CCC(OC)CC6)[C@@H](CC#N)C5)c4CO3)c12 [Example 13, 2-((S)-4-((S)-2-((1-((dimeth-ylamino)methyl)cycloprop-yl)methoxy)-7-(8-ethynyl-3-hydroxynaphthalen-1-yl)-7,8-dihydro-5H-pyrano[4,3-d]pyrimidin-4-yl)-1-((E)-4-(4-methoxypiperidin-1-yl)-but-2-enoyl)piperazin-2-yl)-acetonitrile]
8 | 1.02 nM | 25.4 nM | 7.15 nM | C#Cc1cccc2cc(O)cc([C@@H]3Cc4nc(OCC5(CN6CCOCC6)CC5)nc(N5CCN(C(=O)/C=C/CN6CCC(OC)CC6)[C@@H](CC#N)C5)c4CO3)c12 [Example 1, 2-((S)-4-((S)-7-(8-ethynyl-3-hydroxynaphthalen-1-yl)-2-((1-(morpholinomethyl)cyclopropyl)methoxy)-7,8-dihydro-5H-pyrano[4,3-d]pyrimidin-4-yl)-1-((E)-4-(4-methoxypiperidin-1-yl)but-2-enoyl)piperazin-2-yl)acetonitrile]
9 | 0.73 nM | 107 nM | 10.1 nM | COC1CCN(C/C=C/C(=O)N2CCN(c3nc(OC[C@@H]4CCCN4C)nc4c3CO[C@H](c3cc(O)cc5cccc(Br)c35)C4)C[C@@H]2CC#N)CC1 [Example 10, 2-((S)-4-((S)-7-(8-bromo-3-hydroxynaphthalen-1-yl)-2-(((S)-1-methylpyrrolidin-2-yl)methoxy)-7,8-dihydro-5H-pyrano[4,3-d]pyrimidin-4-yl)-1-((E)-4-(4-methoxy-piperidin-1-yl)but-2-enoyl)-piperazin-2-yl)acetonitrile]
